Entries after “also recorded” stand apart in the source; their conditions may differ. Counter-ions that a name gives are not always drawn. Like-named read-outs stand apart in the source and are kept apart here.
Legend:
[1] = tested on: transplanted tumor in mice; assay type: in vivo, mouse; conditions: for effect on the antineoplastic activity of low dose sildenafil: 2 mg/kg/day with sildenafil citrate 10 or 20 mg/kg/day; for tumor inhibition rate: 2 weeks; for toxicity / adverse reactions of the mice during the experimental period: citrate
[2] = tested on: cultured tumor cells; test: production of reactive oxygen species (ROS) in cultured tumor cells; assay type: cell-based; conditions: 300 μM; citrate
Excerpt: (§1) The antitneoplastic mechanism of sildenafil at low doses is not yet clear.
(§2) The antitneoplastic mechanism of low dose sildenafil is not yet clear.

[3] = sildenafil concentration in the blood after oral intake by an adult patient; assay type: in vivo, human; conditions: low oral doses (2-10 mg), estimated
Excerpt: as §1, §2

[4] = tested on: malignant tumors; test: general statement on low dose sildenafil: tumor growth inhibition in vivo and tolerability; conditions: low dose: daily oral 0.04˜0.5 mg per 1 kg, injection 0.04˜0.2 mg per 1 kg or topical less than 1%; for toxicity or side effects: citrate
Excerpt: It can be used to achieve effective control of tumor growth and improve the treatment of tumors.

[5] = tested on: cultured tumor cells; test: growth of cultured tumor cells; assay type: cell-based; conditions: 200 μM; citrate
Excerpt: as §1, §2

[6] = tested on: human hepatocellular carcinoma cell line (HEPG2); conditions: 2 μM, citrate; cited from earlier work
[7] = tested on: transplanted tumor derived from liver cancer; conditions: mouth-fed, combined with Stivarga (regorafenib); cited from earlier work
[8] = tested on: transplanted tumor of prostate cancer; conditions: cited from earlier work

For CN(C)CCC(c1ccc(Cl)cc1)c1ccccn1 (stereo not drawn) [chlorphenamine maleate], the “effect on the antineoplastic activity of low dose sildenafil” value [1] was “directly counteract the antineoplastic activity” and the “effect on the antineoplastic activity of low dose sildenafil” value ([1]; listed as chlorphenamine malate) was “significantly counteracted the antineoplastic activity”.
With CCCc1nn(C)c2c(=O)[nH]c(-c3cc(S(=O)(=O)N4CCN(C)CC4)ccc3OCC)nc12.O=C(O)CC(O)(CC(=O)O)C(=O)O [sildenafil, 1-[[3-(6,7-Dihydro-1-methyl-7-oxo-3-propyl-1H-pyrazolo[4,3-d]pyrimidin-5-yl)-4-ethoxyphenyl]sulfonyl]-4-methylpiperazine citrate] the tumor inhibition rate ([1]; 10 mg/kg/day, combined with chlorphenamine maleate 2 mg/kg/day) was 16%, the tumor inhibition rate ([1]; 20 mg/kg/day, combined with chlorphenamine maleate 2 mg/kg/day) was 7% and the “inhibitory effect on growth of the transplanted tumor” value ([1]; 50 mg/kg/day) was “no obvious inhibitory effects”. The tumor inhibition rate ([1]; gavage 10 mg/kg/day, alone) was 63%, the “tumor growth inhibition rate” value ([1]; gavage 10 mg/kg/day, 36 days, dissolved in 25% ethanol) was 68% and the “toxicity / adverse reactions of the mice during the experimental period” value ([1]; gavage 10 mg/kg/day, 36 days, 10 mg/kg/day) was “no significant or observable toxicity reactions”. The “toxicity / adverse reactions of the mice during the experimental period” value ([1]; gavage 10 mg/kg/day, 36 days, listed as sildenafil citrate, 10 mg/kg/day) was “no significant or observable adverse reactions”, the tumor inhibition rate ([1]; gavage 20 mg/kg/day, alone) was 50% and the “production of reactive oxygen species (ROS)” value [2] was “induced production of reactive oxygen species (ROS); also recorded: induce the production of reactive oxygen species (ROS)”. The “drug concentration in the blood” value [3] was “lower than 0.1 μM”, the “inhibition rate of tumor growth” value [4] was “more than 50%” and the “toxicity or side effects” value [4] was “does not produce significant toxicity or side effects”. For the same compound, the “toxicity or side effects” value ([4]; listed as Sildenafil citrate) was “without significant toxic side effects”, the “toxicity or side effects” value ([4]; listed as sildenafil citrate) was “without significant toxic side effects” and the “effect on the growth of cultured tumor cells” value [5] was “direct inhibitory effect; also recorded: directly inhibited the growth”. For the same compound, the “expression of IkB nitro-tyrosine and apoptotic gene ligand Fas-L” value [6] was “stimulate the expression”, the “growth of transplanted tumor derived from liver cancer” value [7] was “significantly inhibit the growth” and the “antineoplastic effect used alone” value ([8]; alone at normal doses (25-100 mg), versus control group) was “not significant”. For the same compound, the “growth of transplanted tumor of prostate cancer” value ([8]; intraperitoneal injection, combined with Adriamycin (Doxorubicin)) was “significantly inhibit the growth”.

Reference: patent US20190183893A1 (Guangzhou Dawnlight Biotech Company, priority 2016, published 2019)
